Earlier results, collected in patent EP4660212A1, “POLYVINYL ALCOHOL-BASED POLYMER” (Japan Vam & Poval Co., Ltd., priority 2023, dated 2024).

Settings: water at 20°C

Structure (SMILES) | solubility in 100 mL (100 g) of water
c1ccc2cc3ccccc3cc2c1 [anthracene] | about 0.13 mg/100 g water
CCOc1ccccc1C(N)=O [ethenzamide] | about 100 mg/100 g water
